{"source": "patent US11612628B2", "about": "“Compositions for the treatment of articular disorders” (Aboca S.p.A. Società Agricola, priority 2017, dated 2023)", "assay_type_in_all_cases": "in vivo, Sprague-Dawley rats", "key": {"[1]": {"test_system": "Monoiodine Acetate-Induced Osteoarthritis Pain Model", "assay": "Paw pressure test, MIA-induced osteoarthritis rats", "experimental": "(§1) Damage to the joint was induced by an individual intraarticular administration, in the paw of a pre-anesthetized rat, of 2 mg of […] (MIA) (volume: 25 μl) according to what described by Guingamp et al., Arthritis Rheum., 40:1670-1679, 1997.\n(§2) The experiments described below were performed by injecting into the joint 20 μl of • control (physiological solution); • extract of lyophilized Echinacea purpurea, fraction soluble in hydroalcoholic solution 40-50%, denoted in the figures as 13C1608:2-10-20 mg/ml in PBS (phosphate buffered saline); • extract of lyophilized Centella asiatica, fraction soluble in hydroalcoholic solution 65-75%, denoted in the figures as 14G1862:0.2-1-2 mg/ml in PBS; • bovine synovial fluid: as is; • Hyalgan (Low-molecular weight Hyaluronic acid sodium salt (MW ˜500-730 kDa)):as is; • Jonexa (mixture comprised of a hylastan gel, i.e. a hyaluronic acid crosslinked with divinyl sulfone, and a sodium hyaluronate liquid in the gel-liquid ratio of 80:20): as is; • extract of Centella asiatica fraction soluble in hydroalcoholic solution 65-75%, denoted in the figures as 14G1862: 2 mg/ml in PBS • extract of lyophilized Centella asiatica, fraction soluble in hydroalcoholic solution, denoted in the figures as ABO-AR-2016-391: 2 mg/ml in PBS; • extract of lyophilized Centella asiatica, fraction soluble in hydroalcoholic solution, corresponding to the permeate of fraction ABO-AR-2016-391 after filtration, denoted in the figures as ABO-AR-2016-392:2 mg/ml in PBS; • extract of lyophilized Centella asiatica, fraction soluble in hydroalcoholic solution, corresponding to the retentate of fraction ABO-AR-2016-391 after filtration, denoted in the figures as ABO-AR-2016-393:2 mg/ml in PBS; • Triamcinolone acetonide: 100 μg/[…] • MIX (coextract) Centella+Echinacea lot 17H0246, as described above: 11 mg/ml in water f.p.i.\n(§3) Injected material: 20 μL of each sample assayed were injected into rat tibiotarsal joint (using a 26Gx3/8 needle) at […] from damage induction by MIA.\n(§4) The mixture of plant extracts was solubilized in accordance with the following protocol: 5.5 g of lyophilized mixture were introduced in a beaker containing 450 g of water and left under stirring 15 min; thereafter, the weight of the liquid was brought to 500 g. For each injection, 30 g of solution were collected and filtered in sequence with 0.45-μ, and 0.22-μm filters. For each filtering, the first 3-4 g of solution were discarded. 20 μL of mixture were injected into the tibiotarsal joint of the rat (using a 26Gx3/8 needle) after having flexed its paw so as to form a 90°-degree angle, at day 8 from articular (joint) damage induction by MIA. For the other substances as well 20 μL of solution were injected (Hyalgan 10 mg/ml; triamcinolone acetonide 100 μg/20m1).\nAn analgesimeter (Ugo Basile, Varese, Italy) was used. A pressure increasing at a constant rate (32 g/s) was applied on the hind paw of the animal by a blunt conical element. The nociceptive threshold of the rat was expressed as that force to which the animal reacts by withdrawing the paw or vocalizing (Leighton et al., 1988)."}, "[2]": {"test_system": "Monoiodine Acetate-Induced Osteoarthritis Pain Model", "assay": "Animex test (spontaneous activity), MIA-induced osteoarthritis rats", "conditions": "for Animex test Number of movements: 20 μL i.a. day 8 after MIA, Table 4", "experimental": "as §1, §2\nas §4, with “For the other substances as well 20 μL of solution were injected (Hyalgan 10 mg/ml; triamcinolone acetonide 100 μg/20m1).” left out\nThe instrument enables to record the spontaneous activity of the animals through use of electromagnetic fields and resonance circuits. […] Variations are recorded by a number counter."}, "rat tibiotarsal joint": {"test_system": "rat tibiotarsal joint", "assay": "Histology of the tibiotarsal joint, MIA-treated rats", "experimental": "as §1, §2, §3\nTissue samples were fixed in 4% formalin in phosphate buffer for 24 hours. Subsequently, samples were decalcified for 28 days in a suitable decalcifying solution (1.6M formic acid, 0.76M sodium formate). At the end of the decalcification, the samples were dehydrated by passages in alcohol with increasing titer, and then included in paraffin. From samples thus processed, 7 μm-thick sections were obtained which were stained by Hematoxylin-Eosin.\nThe samples were observed under transmitted light optical microscope to assess the morphological parameters subject of analysis: • Inflammatory infiltrate • Synovial hyperplasia • Fibrin deposition in the joint space • Synovial vascularization • Cartilage erosion • Bone erosion • Joint space width\nEvery morphological parameter was evaluated by a specially provided score (0:absent, 1:scarce, 2:moderate, 3:serious). The evaluation was performed by three separate operators, in blind relative to the origin of the slides. A fourth operator collected data and obtained the final means. For each joint, at least three slides, and for each group at least 6 animals were evaluated. Results are expressed as mean±standard error."}, "[3]": {"test_system": "Monoiodine Acetate-Induced Osteoarthritis Pain Model", "assay": "Incapacitance test, MIA-induced osteoarthritis rats", "conditions": "for Incapacitance test Δ Weight (contralateral - ipsilateral paw): 20 μL i.a. day 8 after MIA, Table 2; for Incapacitance test Δ Weight (paw contralateral - ipsilateral): 20 μL i.a. of fraction (2 mg/ml) or triamcinolone acetonide (100 μg), Table 9", "experimental": "as §1, §2, §3, §4\nThe test is based on the evaluation of the pressure exerted by a rat under conditions of normal posture on each of the hind legs (Hay et al. Neurosci. 78:843-850, 1997). Rats were placed into a small plexiglass box, their hind legs positioned onto two transducers recording the weight the rat distributes on each of the two paws. In case a neuropathy or an inflammation has been induced on one paw, the rat will exert less weight on said paw, compared to the other one."}, "[4]": {"test_system": "Monoiodine Acetate-Induced Osteoarthritis Pain Model", "assay": "Beam balance test, MIA-induced osteoarthritis rats", "conditions": "for Beam balance test score, from normal (0) to pathological (4): 20 μL i.a. day 8 after MIA, Table 3", "experimental": "as §1, §2, §4\nA 1-meter-long wooden beam having a 1 cm-square section was placed at a height of about 40 cm. […]"}, "[5]": {"conditions": "coextract study, single i.a. 20 μL, days 14, 30, 60"}, "[6]": {"conditions": "Centella fractions study, FIGS. 3 and 4"}}, "note": "Several values for one entry are separate records, joined by “and”; a condition that tells them apart may be missing. Equal values may be shown once."}
{"molecule": "CC1(C)O[C@@H]2C[C@H]3[C@@H]4CCC5=CC(=O)C=C[C@]5(C)[C@@]4(F)[C@@H](O)C[C@]3(C)[C@]2(C(=O)CO)O1", "note": "[triamcinolone acetonide, Triamcinolone acetonide]", "values": [{"measurement": "Paw pressure test Weight", "setting": "[1]; Day 14, contralateral, 20 μL i.a. day 8 after MIA, Table 1", "value": "64.5 ± 0.9", "unit": "g"}, {"measurement": "Paw pressure test Weight", "setting": "[1]; Day 14, contralateral, 20 μL i.a. of fraction (2 mg/ml) or triamcinolone acetonide (100 μg), Table 8", "value": "65.3 ± 1.0", "unit": "g"}, {"measurement": "Paw pressure test Weight", "setting": "[1]; Day 14, ipsilateral, 20 μL i.a. day 8 after MIA, Table 1", "value": "51.9 ± 1.3^^ g"}, {"measurement": "Paw pressure test Weight", "setting": "[1]; Day 14, ipsilateral, 20 μL i.a. of fraction (2 mg/ml) or triamcinolone acetonide (100 μg), Table 8", "value": "52.8 ± 1.1", "unit": "g"}, {"measurement": "Paw pressure test Weight", "setting": "[1]; Day 30, contralateral, 20 μL i.a. day 8 after MIA, Table 1", "value": "68.4 ± 1.6", "unit": "g"}, {"measurement": "Paw pressure test Weight", "setting": "[1]; Day 30, contralateral, 20 μL i.a. of fraction (2 mg/ml) or triamcinolone acetonide (100 μg), Table 8", "value": "65.8 ± 0.5", "unit": "g"}, {"measurement": "Paw pressure test Weight", "setting": "[1]; Day 30, ipsilateral, 20 μL i.a. day 8 after MIA, Table 1", "value": "57.4 ± 0.4^ g"}, {"measurement": "Paw pressure test Weight", "setting": "[1]; Day 30, ipsilateral, 20 μL i.a. of fraction (2 mg/ml) or triamcinolone acetonide (100 μg), Table 8", "value": "56.7±2.5 g and 56.7 ± 2.5^^ g"}, {"measurement": "Paw pressure test Weight", "setting": "[1]; Day 60, contralateral, 20 μL i.a. day 8 after MIA, Table 1", "value": "64.9 ± 2.1", "unit": "g"}, {"measurement": "Paw pressure test Weight", "setting": "[1]; Day 60, contralateral, 20 μL i.a. of fraction (2 mg/ml) or triamcinolone acetonide (100 μg), Table 8", "value": "66.4 ± 0.7", "unit": "g"}, {"measurement": "Paw pressure test Weight", "setting": "[1]; Day 60, ipsilateral, 20 μL i.a. day 8 after MIA, Table 1", "value": "63.0 ± 1.5^ g"}, {"measurement": "Paw pressure test Weight", "setting": "[1]; Day 60, ipsilateral, 20 μL i.a. of fraction (2 mg/ml) or triamcinolone acetonide (100 μg), Table 8", "value": "61.3 ± 1.6", "unit": "g"}, {"measurement": "antiperalgesic effect, Paw pressure test (in words)", "setting": "[1]; [5]", "value": "significantly reduces the articular pain reaction at all timings"}, {"measurement": "Animex test Number of movements", "setting": "[2]; Day 14", "value": "487.3 ± 57.3^"}, {"measurement": "Animex test Number of movements", "setting": "[2]; Day 30", "value": "583.3 ± 45.2^"}, {"measurement": "Animex test Number of movements", "setting": "[2]; Day 60", "value": "688.9 ± 54.2^"}, {"measurement": "spontaneous mobility, Animex test (in words)", "setting": "[2]; [5]", "value": "effectiveness is lower than that of the plant mixture"}, {"measurement": "cartilage and bone tissue erosion (histology, in words)", "setting": "rat tibiotarsal joint; [6]", "value": "significant effectiveness"}, {"measurement": "inflammatory infiltrate (histology, in words)", "setting": "rat tibiotarsal joint; [6]", "value": "significant effectiveness"}, {"measurement": "joint space reduction (histology, in words)", "setting": "rat tibiotarsal joint; [6]", "value": "reduced effectiveness to 15- and 30-day timings and a more marked effectiveness after 60 days"}, {"measurement": "morphological parameters overall (histology, in words)", "setting": "rat tibiotarsal joint; [6]", "value": "only partially reduces the damaging effects of MIA"}, {"measurement": "other parameters: synovial hyperplasia, fibrin deposition, synovial vascularization (histology, in words)", "setting": "rat tibiotarsal joint; [6]", "value": "reduced effectiveness to 15- and 30-day timings and a more marked effectiveness after 60 days"}, {"measurement": "articular space width (histology, in words)", "setting": "rat tibiotarsal joint; coextract study, FIG. 18-19", "value": "Evident effects"}, {"measurement": "erosion of cartilage and subchondral bone (histology, in words)", "setting": "rat tibiotarsal joint; coextract study, FIG. 18-19", "value": "analogous result"}, {"measurement": "fibrin deposition in the articular space (histology, in words)", "setting": "rat tibiotarsal joint; coextract study, FIG. 18-19", "value": "More moderate effects"}, {"measurement": "inflammatory infiltrate (histology, in words)", "setting": "rat tibiotarsal joint; coextract study, FIG. 18-19", "value": "capable of eliminating the presence of inflammatory infiltrate at all timings analyzed"}, {"measurement": "synovial hyperplasia and vascularization (histology, in words)", "setting": "rat tibiotarsal joint; coextract study, FIG. 18-19", "value": "More moderate effects"}, {"measurement": "Incapacitance test effect (in words)", "setting": "[3]; Centella fractions study, fractions 2 mg/ml, triamcinolone acetonide 100 μg", "value": "active both at days 14 and 30"}, {"measurement": "Incapacitance test Δ Weight (contralateral - ipsilateral paw)", "setting": "[3]; Day 14", "value": "45.7 ± 3.9^^ g"}, {"measurement": "Incapacitance test Δ Weight (paw contralateral - ipsilateral)", "setting": "[3]; Day 14", "value": "28.7 ± 3.2^ g"}, {"measurement": "Incapacitance test Δ Weight (contralateral - ipsilateral paw)", "setting": "[3]; Day 30", "value": "25.4 ± 4.3^^ g"}, {"measurement": "Incapacitance test Δ Weight (paw contralateral - ipsilateral)", "setting": "[3]; Day 30", "value": "15.6 ± 5.4^ g"}, {"measurement": "Incapacitance test Δ Weight (contralateral - ipsilateral paw)", "setting": "[3]; Day 60", "value": "20.9 ± 5.4^ g"}, {"measurement": "Incapacitance test Δ Weight (paw contralateral - ipsilateral)", "setting": "[3]; Day 60", "value": "5.6 ± 4.4", "unit": "g"}, {"measurement": "reduction of MIA-induced postural alteration, Incapacitance test (in words)", "setting": "[3]; [5]", "value": "reduces, it also in a statistically significant manner, MIA-induced alteration at all timings considered"}, {"measurement": "Beam balance test score, from normal (0) to pathological (4)", "setting": "[4]; Day 14", "value": "1.8 ± 0.2^"}, {"measurement": "Beam balance test score, from normal (0) to pathological (4)", "setting": "[4]; Day 30", "value": "1.3 ± 0.2"}, {"measurement": "Beam balance test score, from normal (0) to pathological (4)", "setting": "[4]; Day 60", "value": "0.8 ± 0.2"}, {"measurement": "motor abilities, Beam balance test (in words)", "setting": "[4]; [5]", "value": "statistical significance is reached solely at day 14"}]}
